This note sets out measurements from patent US7501415B2, “Selective inhibitors of ERK protein kinase and uses thereof” (Vertex Pharmaceuticals Incorporated, priority 2004, dated 2009).

The target in the assay is activated ERK2 (Homo sapiens, UniProt P28482). As to the kind of experiment: ERK2 inhibition assay, spectrophotometric coupled-enzyme assay. The settings on record: activated ERK2 10 nM, 65 μM ATP, 200 μM erktide peptide, 30° C., pH 7.5. The format is biochemical. Here is the method: In this assay, a fixed concentration of activated ERK2 (10 nM) was incubated with various concentrations of a compound of the present invention in DMSO (2.5%) for 10 min. at 30° C. in 0.1 M HEPES buffer (pH 7.5), containing 10 mM MgCl2, 2.5 mM phosphoenolpyruvate, 200 μM NADH, 150 μg/ml pyruvate kinase, 50 μg/ml lactate dehydrogenase, and 200 μM erktide peptide.
Sequence of activated ERK2 (P28482 whole entry): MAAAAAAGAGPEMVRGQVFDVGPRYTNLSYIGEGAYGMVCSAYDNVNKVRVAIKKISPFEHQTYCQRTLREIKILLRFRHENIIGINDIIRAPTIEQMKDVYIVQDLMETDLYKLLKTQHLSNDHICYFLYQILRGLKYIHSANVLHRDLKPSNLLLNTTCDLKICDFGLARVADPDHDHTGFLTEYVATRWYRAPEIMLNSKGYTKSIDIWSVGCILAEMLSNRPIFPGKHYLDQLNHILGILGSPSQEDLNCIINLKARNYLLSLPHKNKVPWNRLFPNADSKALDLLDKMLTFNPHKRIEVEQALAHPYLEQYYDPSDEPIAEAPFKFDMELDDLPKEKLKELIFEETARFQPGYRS

Where only a bound is given, the exact number is not on record here.

One may read the Ki as a measure of affinity in units of concentration, obtained from inhibition or displacement. Regarding `Cc1cnc(Nc2c(F)cccc2Cl)nc1-c1c[nH]c(C(=O)NC(CO)c2ccccc2)c1` (centres unmarked) [Compound I-12], the Ki was below 100 nM.
Under `Cc1cnc(Nc2ccccc2Cl)nc1-c1c[nH]c(C(=O)NC(CO)c2cccc(C(F)(F)F)c2)c1` (centres unmarked) [Compound I-11] stands below 100 nM; under `Cc1cnc(Nc2ccc(Cl)cc2Cl)nc1-c1c[nH]c(C(=O)NC(CO)c2ccccc2)c1` (centres unmarked) [Compound I-3], below 100 nM.
The figure for `Cc1cccc(C(CO)NC(=O)c2cc(-c3nc(Nc4ccccc4Cl)ncc3C)c[nH]2)c1` (centres unmarked) [Compound I-10] is below 100 nM; for `Cc1cnc(Nc2cccc(Cl)c2Cl)nc1-c1c[nH]c(C(=O)NC(CO)c2ccccc2)c1` (centres unmarked) [Compound I-6] it is below 100 nM; for `Cc1cnc(Nc2ccc([N+](=O)[O-])cc2Cl)nc1-c1c[nH]c(C(=O)NC(CO)c2ccccc2)c1` (centres unmarked) [Compound I-4] it is below 100 nM.
The figure for `Cc1cnc(Nc2c(Cl)cccc2Cl)nc1-c1c[nH]c(C(=O)NC(CO)c2ccccc2)c1` (centres unmarked) [Compound I-8] is above 100 nM.
Take `Cc1cnc(Nc2c(C)cccc2Cl)nc1-c1c[nH]c(C(=O)NC(CO)c2ccccc2)c1` (centres unmarked) [Compound I-9]: the Ki is above 100 nM.
